Legend:
[1] = Inhibition of HCV genotype 1b NS5A infected in HuH-7-Luc/Neo-ET cells assessed as reduction in viral replication measured by Luciferase reporter gene assay
[2] = Inhibition of HCV genotype 1a NS5A infected in HuH-7-Luc/Neo-ET cells assessed as reduction in viral replication measured by Luciferase reporter gene assay

Compound | EC50 [1] [nM] | EC50 [2] [nM]
COC(=O)N[C@H]1CCC[C@H]2CC[C@@H](c3ncc(-c4ccc(-c5ccc(-c6cnc([C@@H]7CCCN7C(=O)[C@@H](NC(=O)OC)C(C)C)[nH]6)cc5)cc4)[nH]3)N2C1=O | 0.109 | 17
COC(=O)N[C@H](C(=O)N1CCC[C@H]1c1ncc(-c2ccc(-c3ccc(-c4cnc([C@@H]5CC[C@@H]6CCC[C@@H](NC(=O)OC)C(=O)N65)[nH]4)cc3)cc2)[nH]1)C(C)C | 0.133 | 12
COC(=O)N[C@H](C(=O)N1CCC[C@H]1c1ncc(-c2ccc(-c3ccc(-c4cnc([C@@H]5CC[C@H]6CCC[C@@H](NC(=O)OC)C(=O)N65)[nH]4)cc3)cc2)[nH]1)C(C)C | 0.059 | 0.673
COC(=O)N[C@H]1CCC[C@@H]2CC[C@@H](c3ncc(-c4ccc(-c5ccc(-c6cnc([C@@H]7CCCN7C(=O)[C@@H](NC(=O)OC)C(C)C)[nH]6)cc5)cc4)[nH]3)N2C1=O | 0.037 | 0.471
COC(=O)N[C@H]1CCC[C@H]2CC[C@@H](c3ncc(-c4ccc(-c5ccc(-c6cnc([C@@H]7CC8(CN7C(=O)[C@@H](NC(=O)OC)C(C)C)OCCO8)[nH]6)cc5)cc4)[nH]3)N2C1=O | 0.046 | 8.6
COC(=O)N[C@H](C(=O)N1CC2(C[C@H]1c1ncc(-c3ccc(-c4ccc(-c5cnc([C@@H]6CC[C@@H]7CCC[C@@H](NC(=O)OC)C(=O)N76)[nH]5)cc4)cc3)[nH]1)OCCO2)C(C)C | 0.08 | 15
COC(=O)N[C@H](C(=O)N1CC2(C[C@H]1c1ncc(-c3ccc(-c4ccc(-c5cnc([C@@H]6CC[C@H]7CCC[C@@H](NC(=O)OC)C(=O)N76)[nH]5)cc4)cc3)[nH]1)OCCO2)C(C)C | 0.047 | 0.707
COC(=O)N[C@H]1CCC[C@@H]2CC[C@@H](c3ncc(-c4ccc(-c5ccc(-c6cnc([C@@H]7CC8(CN7C(=O)[C@@H](NC(=O)OC)C(C)C)OCCO8)[nH]6)cc5)cc4)[nH]3)N2C1=O | 0.064 | 1.5
COC(=O)N[C@H](C(=O)N1CC2(C[C@H]1c1ncc(-c3ccc(-c4ccc(-c5cnc([C@@H]6CC[C@@H]7CCC[C@H](N(C)C)C(=O)N76)[nH]5)cc4)cc3)[nH]1)OCCO2)C(C)C | 0.209 | 32
COC(=O)N[C@H](C(=O)N1CC2(C[C@H]1c1ncc(-c3ccc(-c4ccc(-c5cnc([C@@H]6CC[C@@H]7CCC[C@@H](N(C)C)C(=O)N76)[nH]5)cc4)cc3)[nH]1)OCCO2)C(C)C | 0.217 | 119
COC(=O)N[C@H](C(=O)N1CC2(C[C@H]1c1ncc(-c3ccc(-c4ccc(-c5cnc([C@@H]6CC[C@H]7CCC[C@@H](N(C)C)C(=O)N76)[nH]5)cc4)cc3)[nH]1)OCCO2)C(C)C | 0.298 | 11
COC(=O)N[C@H](C(=O)N1CC2(C[C@H]1c1ncc(-c3ccc(-c4ccc(-c5cnc([C@@H]6CC[C@H]7CCC[C@H](N(C)C)C(=O)N76)[nH]5)cc4)cc3)[nH]1)OCCO2)C(C)C | 0.084 | 7.7
COC(=O)N[C@H](C(=O)N1CCC[C@H]1c1nc(-c2ccc(-c3ccc(-c4c[nH]c([C@@H]5CCCN5C(=O)[C@@H](NC(=O)OC)C(C)C)n4)cc3)cc2)c[nH]1)C(C)C [BMS-790052] | 0.032 | 0.079

Reference: BindingDB's records for doi:10.1021/acsmedchemlett.1c00391 (Glaxosmithkline, 2021)
